Patent publication US20160290995A1, “METHODS OF SELECTING AKT AGONISTS OR ANTAGONISTS” (OREGON HEALTH & SCIENCE UNIVERSITY, priority 2015, published 2016)

Columns and labels:
[1] = system: Akt; assay: FOXO1-clover reporter live-cell imaging (relative nuclear intensity) in C3H10T1/2 fibroblasts; format: cell-based, mouse; conditions: for change of nuclear levels of the reporter on growth factor addition (result in words): different concentrations; for change of nuclear levels of the reporter on growth factor addition (result in words) / time to half-maximal translocation/accumulation of reporter in the cytoplasm after onset of incubation / time to maximal translocation values: cells pre-incubated in SFM, population level; for time to half-maximal translocation/accumulation of reporter in the cytoplasm after onset of incubation / time to maximal translocation values: different growth factor concentrations
Experimental: (§1) Cells were imaged every 2-min for 60 min. At the end of the incubation period whole cell lysates were collected.
10T1/2 cells and C2 myoblasts were incubated in serum-free medium for 90 min. R3-IGF-I was added in supplemented FluoroBrite [0 to 500 pM], and cells were imaged every 2-min for 60 min. […]
(§2) Live cell imaging was performed using an EVOS FL Auto microscope with a stage top incubator that was maintained at 37° C. and 95% humidified air with 5% CO2. Images were collected at 100× magnification at different intervals, using a 10× Fluorite objective (numerical aperture: 0.3), and a GFP light cube (excitation peak, 472/22 nm; emission peak, 510/42 nm). Images were analyzed with the NIH ImageJ plug-in Fiji (NIH, Bethesda, Md.), after using the Polynomial Fit plug-in to subtract background fluorescence, the Stack Reg (rigid registration) plug-in to register images, and the Gaussian Blur plug-in (at 2-pixels) to average fluorescence across pixels. Individual cells were manually tracked using the mTrackJ plug-in (Meijering E et al, Methods Enzymol 504, 183-200 (2012); incorporated by reference herein) by selecting a single point in the nucleus. Cells that died, divided, or migrated out of frame were excluded from analysis. In experiments performed in 6-well dishes, two locations on opposite sides of the well were imaged, while for studies using 24-well plates, one central location was imaged. In each location, at least 25 cells were tracked.

[2] = system: Akt; assay: FOXO1-clover reporter live-cell imaging in C2 myoblasts; format: cell-based, mouse; conditions: different concentrations of R3-IGF-I, 60 min
Experimental: C3H10T1/2 mouse embryonic fibroblasts (ATCC #CCL226) were incubated in DMEM supplemented with 10% FBS. Mouse C2 myoblasts (Yaffe and Saxel, 1977) were grown in DMEM supplemented with 10% FBS and 10% newborn calf serum. Cells were transduced at 50% of confluent density with concentrated virus in the presence of 6 μg/ml polybrene, as described (Mukherjee A et al, Mol Cell Biol 30, 1018-1027 (2010); incorporated by reference herein). Cells were then selected by incubation with puromycin (2 μg/ml) for one week. Surviving cells were sorted by fluorescence intensity using a Becton-Dickinson Influx cell sorter at the OHSU Flow Cytometry Core Facility. Reporter expression was stable for at least 10 passages in each sorted cell population.
10T1/2 cells and C2 myoblasts were incubated in serum-free medium for 90 min. R3-IGF-I was added in supplemented FluoroBrite [0 to 500 pM], and cells were imaged every 2-min for 60 min.

[3] = system: Akt; assay: FoxO1-clover reporter live-cell imaging in HeLa cells; format: cell-based; conditions: IGF-I 500 pM, insulin 1400 pM, EGF 4.2 nM, PDGF-BB 4.1 nM, PDGF-AA 3.5 nM; 90 min
Experimental: HeLa cells (ATCC #CCL2) were incubated in DMEM supplemented with 10% FBS. Cells were transduced at 50% of confluent density with concentrated FoxO1-clover virus in the presence of polybrene (6 μg/ml), as described (Gross S M and Rotwein P, Skelet Muscle 3, doi10.1186/2044-5040-3-10 (2013); incorporated by reference herein), and sorted by fluorescence intensity with a Becton-Dickinson Influx cell sorter. Reporter expression was stable for at least 10 passages in each sorted cell population. C3H10T1/2 mouse embryonic fibroblasts (ATC #CCL226) stably expressing FoxO1-clover (Gross and Rotwein, 2015), were maintained under selection with puromycin (2 μg/ml).
as §2, with “tracked. The relative nuclear intensity of the FoxO1-clover reporter protein was calculated in each cell by normalizing the values measured at time 0 to 100%. This corresponded to incubation in serum-free medium (SFM). In graphs in which single cell responses were plotted with C3H10T1/2 cells, we applied a time-weighted smoothing filter to each data point. This consisted of averaging contributions from the two prior and two succeeding times (adding 50% of the prior or succeeding time point, and 25% of the next succeeding or earlier time point to 100% of the value of the time point in question, and then dividing by 2.5).” for “tracked.”
Short-term responses to individual growth factors: C3H10T1/2 cells were incubated in serum-free Fluorobrite medium plus 2 mM L-glutamine and 0.1% bovine serum albumin for 90 min. Different concentrations of growth factors were added and images were collected every 2 min for 90 min. Growth factors included insulin [0 to 1400 pM], EGF [0 to 4.2 nM], PDGF-AA [0 to 1400 pM], or PDGF-BB [0 to 104 pM]. HeLa cells were incubated in serum-free Fluorobrite medium for 120 min and then incubated with insulin [1400 pM], EGF [4.2 nM], PDGF-AA [3.5 nM], PDGF-BB [4.1 nM], or R3-486 IGF-I [500 pM], with images collected every 2 min.

[4] = system: Akt phosphorylation; assay: Immunoblotting of Akt and PRAS40 phosphorylation in 10T1/2 whole cell lysates; format: cell-based, mouse
Experimental: as §1
(§3) Whole cell protein lysates were prepared as described (Mukherjee A and Rotwein P, Mol Endorcrinol 22, 1238-1250 (2008); incorporated by reference herein). Protein aliquots (15 μg/lane) were resolved by SDS-PAGE (12% separating gel), followed by transfer to Immobilon-FL membranes, and blocking with 50% AquaBlock solution. Membranes were incubated sequentially with primary and secondary antibodies, as described (Mukherjee and Rotwein, 2008 supra). Primary antibodies were incubated for 12-16 hr at a 1:1000 dilution, except for α-tubulin (1:10,000), and secondary antibodies for 90 min at 1:5000. Images were captured using the LiCoR Odyssey and version 3.0 analysis software (Lincoln, Nebr.).
C3H10T1/2 cells stably expressing FoxO1-clover were incubated in SFM with Fluorobrite imaging media for 90 min followed by addition of insulin [1400 pM], EGF [4.2 nM], PDGF-AA [1400 pM], or PDGF BB [104 pM]. Whole protein lysates were collected after 0, 5, 15, 30, 60, and 90 min of growth factor exposure by washing cells twice with cold PBS and addition of RIPA buffer containing protease and phosphatase inhibitors (Mukherjee A and Rotwein P, Mol Endocrinol 22, 1238-1250 (2008); incorporated by reference herein). Protein aliquots (12.5 μg/lane) were resolved by SDS PAGE (10% separating gels), and transferred onto Immobilon-FL membranes. Membranes were incubated in 50% AquaBlock for 60 min, followed by addition of primary antibodies at 1:1000 dilution for 16 hr, and secondary antibodies for 90 min at 1:5000. Images were collected using the LiCoR Odyssey and analysis software version 3.0 (Lincoln, Nebr.).

[5] = system: Akt phosphorylation; assay: Immunoblotting of Akt phosphorylation in C2 myoblast whole cell lysates; format: cell-based, mouse; conditions: different concentrations of IGF-I, C2 myoblasts
Experimental: as §3

[6] = target: IGF-I receptor (Homo sapiens, UniProt P08069); conditions: cited from earlier work
Chain of IGF-I receptor (P08069 31-736 limits assumed, species assumed): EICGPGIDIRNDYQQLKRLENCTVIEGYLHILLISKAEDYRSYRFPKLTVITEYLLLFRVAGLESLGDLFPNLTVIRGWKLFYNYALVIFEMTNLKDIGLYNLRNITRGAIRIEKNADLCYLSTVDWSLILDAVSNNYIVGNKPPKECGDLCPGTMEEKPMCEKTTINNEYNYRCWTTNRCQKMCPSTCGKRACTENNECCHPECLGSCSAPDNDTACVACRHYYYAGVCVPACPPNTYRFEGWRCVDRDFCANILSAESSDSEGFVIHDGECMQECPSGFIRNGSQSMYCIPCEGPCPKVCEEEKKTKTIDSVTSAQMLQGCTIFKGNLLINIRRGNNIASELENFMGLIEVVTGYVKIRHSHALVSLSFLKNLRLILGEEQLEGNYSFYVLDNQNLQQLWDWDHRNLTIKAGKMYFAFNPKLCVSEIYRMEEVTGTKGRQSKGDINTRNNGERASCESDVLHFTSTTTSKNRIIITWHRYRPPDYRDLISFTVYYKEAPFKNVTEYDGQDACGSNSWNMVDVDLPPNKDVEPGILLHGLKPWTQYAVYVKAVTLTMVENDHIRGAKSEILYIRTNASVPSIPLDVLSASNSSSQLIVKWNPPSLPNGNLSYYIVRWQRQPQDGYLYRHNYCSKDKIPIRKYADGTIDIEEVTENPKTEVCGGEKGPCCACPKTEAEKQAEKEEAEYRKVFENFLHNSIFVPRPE
Chain of IGF-I receptor (P08069 741-1367 partner limits assumed, species assumed): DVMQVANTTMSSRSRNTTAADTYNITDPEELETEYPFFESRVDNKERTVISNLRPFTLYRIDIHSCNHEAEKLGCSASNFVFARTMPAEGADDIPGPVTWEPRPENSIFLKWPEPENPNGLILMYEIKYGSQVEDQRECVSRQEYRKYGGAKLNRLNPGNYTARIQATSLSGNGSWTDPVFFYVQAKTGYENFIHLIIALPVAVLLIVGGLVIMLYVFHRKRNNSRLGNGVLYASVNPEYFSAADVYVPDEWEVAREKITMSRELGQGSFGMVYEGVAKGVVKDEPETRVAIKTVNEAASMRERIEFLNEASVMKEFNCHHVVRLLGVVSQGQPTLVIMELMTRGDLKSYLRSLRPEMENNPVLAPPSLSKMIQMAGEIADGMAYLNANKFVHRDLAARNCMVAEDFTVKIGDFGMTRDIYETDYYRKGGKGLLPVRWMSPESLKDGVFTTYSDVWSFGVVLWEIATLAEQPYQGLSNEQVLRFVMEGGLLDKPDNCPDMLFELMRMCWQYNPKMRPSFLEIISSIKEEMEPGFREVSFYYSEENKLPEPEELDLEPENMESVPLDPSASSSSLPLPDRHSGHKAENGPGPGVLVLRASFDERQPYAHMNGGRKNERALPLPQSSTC

Row | Substance | response to IGF-I after prior EGF ([1]; EGF 4.2 nM for 60 min, then IGF-I 500 pM) | change of nuclear levels of the reporter on growth factor addition (result in words) [1] | time to half-maximal translocation/accumulation of reporter in the cytoplasm after onset of incubation [1] [min] | time to maximal translocation values [1] [min] | response to a second treatment with the same growth factor ([1]; sequential exposures, IGF-I 50 or 500 pM with 90-min washout, EGF 4.2 nM after 60 min EGF) | subcellular localization of FOXO1-clover (result in words) ([1]; serum-starved cells, 60 min, 10% FBS, PDGF-BB 206 pM, R3-IGF-I 1 nM, BMP-2 15 nM) | reporter response in C2 myoblasts compared with 10T1/2 cells [2] | signaling response in HeLa FoxO1-clover cells (result in words) [3] | Akt phosphorylation (pAkt T308 immunoblot) ([4]; 60 min, 10% FBS, PDGF-BB 206 pM, R3-IGF-I 1 nM, BMP-2 15 nM) | extent of Akt phosphorylation (immunoblot) ([4]; different concentrations of IGF-I, 10T1/2 cells) | extent of Akt phosphorylation (immunoblot) [5] | time at which phosphorylation of Akt and PRAS40 was detected ([4]; insulin 1400 pM) [min] | time course of Akt and PRAS40 phosphorylation (result in words) ([4]; insulin 1400 pM, EGF 4.2 nM, PDGF-AA 1400 pM, PDGF-BB 104 pM, up to 90 min) | affinity for IGF-I receptor relative to insulin receptor (fold less) [6] [fold]
1 | R3-IGF-I: growth factor purchased from GroPep; binds minimally to IGF binding proteins; activates Akt | rapid, extensive, and sustained signaling response | rapid and dose-dependent reduction in nuclear levels of the reporter | 8 to 10 | 14 to 16 | qualitatively similar population responses to each dose | rapid and sustained translocation of the reporter from the nucleus to the cytoplasm | marked increase in sensitivity to IGF-I | sustained signaling effects | stimulation of Akt phosphorylation | dose-dependent increase in the extent of Akt phosphorylation | dose-dependent increase in the extent of Akt phosphorylation | – | – | –
2 | insulin: recombinant human insulin (Tocris Bioscience) | – | rapid, dose-dependent, and sustained decrease in nuclear levels of FoxO1-clover | 8 to 15 | ~20 | – | – | – | sustained signaling effects | – | – | – | ≤ 5 | rapid and sustained | ~1000
